In data set [1] the test system is HepG2. The experiment in a line: Cytotoxicity against human HepG2 cells at 10 uM by SRB assay. The class given is functional, cell-based. On the technique in general: The SRB assay estimates cell density from bound dye.
The nature of data set [2]: Cytotoxicity against human Chang cells by SRB assay. It is filed as cell-based.
The target of data set [3] is T1, Alpha glucosidase (Homo sapiens, UniProt O43451+P10253+P14410+Q2M2H8). The data set can be described thus: Inhibition of human alpha-glucosidase expressed in Saccharomyces cerevisiae using p-nitrophenyl-alpha-D-glucopyranoside as substrate after 15 mins.
For data set [4], the system named is HeLa. The data set can be described thus: Cytotoxicity against human HeLa cells at 10 uM by SRB assay. It is filed as functional, cell-based.
Data set [5] relates to A549. The experiment in a line: Cytotoxicity against human A549 cells at 10 uM by SRB assay. The class given is functional, cell-based.
Data set [6] is described as follows: Cytotoxicity against human Chang cells at 10 uM by SRB assay. It is filed as cell-based.
For data set [7], the system named is A549. The experiment in a line: Cytotoxicity against human A549 cells by SRB assay. It is filed as functional, cell-based.
Data set [8] addresses T1, Alpha glucosidase. The experiment in a line: Inhibition of human alpha-glucosidase expressed in Saccharomyces cerevisiae at 10 uM using p-nitrophenyl-alpha-D-glucopyranoside as substrate after 15 mins by two-fold serial dilution method.
Data set [9] relates to HeLa. The data set can be described thus: Cytotoxicity against human HeLa cells by SRB assay. The class given is functional, cell-based.
For data set [10], the system named is HepG2. The data set can be described thus: Cytotoxicity against human HepG2 cells by SRB assay. The class given is functional, cell-based.

pIC50: −log10 of the molar value. Structures can show the parent of a compound that is named as a salt. The source made the active and inactive calls. The calls are words filed in the database; no cut-off is given here.

Turning to `COc1cc(-c2ccc(OCCBr)cc2)c(OC)c(O)c1-c1ccc(O)cc1`, the result in the data set with HepG2 [1], with HeLa [4] and in the data set with A549 [5] was inactive. In data set [2], the CC50 – broadly, the concentration at which the toxic effect on the cells reaches its halfway point – is 95.4 µM. At Alpha glucosidase [3], the IC50 (in general, the concentration needed to halve the response being measured) was found to be 16.1 µM.
For `COc1cc(-c2ccc(OCCN3CCCC3)cc2)c(OC)c(O)c1-c1ccc(O)cc1`, the outcome with HepG2 [1], with HeLa [4] and with A549 [5] was inactive.
For `C=CCOc1c(OC)c(-c2ccc(O)cc2)cc(OC)c1-c1ccc(O)cc1`, the result in the data set with HepG2 [1], in the data set on HeLa [4] and with A549 [5] was inactive. This compound displayed an IC50 against Alpha glucosidase [3] of 83.8 µM. In addition, the Activity result in data set [6] is given as “Non-Toxic”.
Turning to `CCCOc1ccc(-c2c(OC)cc(-c3ccc(O)cc3)c(OC)c2O)cc1`, the outcome in the data set on HepG2 [1] and with HeLa [4] was inactive. In the data set with A549 [7], the pIC50 (commonly the negative decadic logarithm of the IC50, by convention in mol/L) is 4.99. On Alpha glucosidase [3], this compound returned an IC50 of 12.3 µM. Moreover, in data set [6], the Activity entry was “Non-Toxic”.
With `CCCOc1ccc(-c2c(OC)cc(-c3ccc(O)cc3)c(OC)c2OCCC)cc1`, the result in the data set with HepG2 [1], in the data set on HeLa [4] and in the data set with A549 [5] was inactive. In data set [2], this compound returned a CC50 of 13.1 µM. On Alpha glucosidase [3], the IC50 is 10.7 µM.
As for `COc1cc(-c2ccc(O)cc2)c(OC)c(OCCN2CCCC2)c1-c1ccc(O)cc1`, the outcome in the data set with HepG2 [1], in the data set on HeLa [4] and in the data set on A549 [5] was inactive.
Turning to `COc1c(Cl)c(-c2ccc(O)cc2)c(OC)c(O)c1-c1ccc(O)cc1`, the result in the data set on HepG2 [1], in the data set on HeLa [4] and in the data set on A549 [5] was inactive. The IC50 against Alpha glucosidase [3] is 31.3 µM. Besides, the Activity result in [6] was “Non-Toxic”.
For the compound `C=CCOc1ccc(-c2cc(OC)c(-c3ccc(OCC=C)cc3)c(O)c2OC)cc1`, the result in the data set with HepG2 [1], in the data set with HeLa [4] and in the data set on A549 [5] was inactive. Moreover, the inhibition entry at Alpha glucosidase [8] was “inactive”. Moreover, the Activity result in data set [6] is on record as “Non-Toxic”.
With `COc1cc(-c2ccc(O)cc2)c(OC)c(O)c1-c1ccc(OCCBr)cc1`, the outcome with HepG2 [1], with HeLa [4] and with A549 [5] was inactive. In addition, it took 54.4 µM to reach half-maximal cytotoxicity in data set [2] (CC50). The IC50 on Alpha glucosidase [3] was 18 µM.
Turning to `COc1cc(-c2ccc(OC(c3ccccc3)c3ccccc3)cc2)c(OC)c(O)c1-c1ccc(O)cc1`, the result in the data set with HepG2 [1], in the data set with HeLa [4] and with A549 [5] was inactive. The compound further registered a CC50 in data set [2] of 22.3 µM.
Regarding `C#CCOc1ccc(-c2cc(OC)c(-c3ccc(O)cc3)c(OCC#C)c2OC)cc1`, the values for the pIC50 in the data set with A549 [7], in the data set with HeLa [9] and in the data set on HepG2 [10] were 6.10, 6.17 and 5.91, respectively. In addition, in data set [2], half-maximal cytotoxicity (CC50) was put at 2.31 µM. The IC50 on Alpha glucosidase [3] is 20.1 µM.
The like results for `COc1cc(-c2ccc(OCCBr)cc2)c(OC)c(OCCBr)c1-c1ccc(O)cc1` were, in that order, 5.51, 5.80, 5.41, 5.05 µM and 6.67 µM.
For the compound `COc1cc(-c2ccc(OCc3ccc(-c4ccccc4)cc3)cc2)c(OC)c(O)c1-c1ccc(O)cc1`, the result with HepG2 [1], in the data set with HeLa [4] and in the data set on A549 [5] was inactive. Also, the CC50 in data set [2] amounted to 12.7 µM. This compound also came in with an IC50 against Alpha glucosidase [3] of 12.2 µM.
Regarding `C=CCOc1ccc(-c2cc(OC)c(-c3ccc(OCC=C)cc3)c(OCC=C)c2OC)cc1`, the outcome in the data set with HepG2 [1] and in the data set with A549 [5] was inactive. In addition, on Alpha glucosidase [8], the inhibition entry was “inactive”. This compound also gave a pIC50 with HeLa [9] of 5.00. The Activity result in data set [6] is “Non-Toxic”.
For the compound `COc1cc(-c2ccc(OCC(=O)O)cc2)c(OC)c(O)c1-c1ccc(O)cc1`, the result with HepG2 [1], in the data set on HeLa [4] and in the data set on A549 [5] was inactive.
Turning to `COc1cc(-c2ccc(OCCBr)cc2)c(OC)c(OCCBr)c1-c1ccc(OCCBr)cc1`, the outcome in the data set on HepG2 [1], in the data set with HeLa [4] and in the data set on A549 [5] was inactive. In addition, the inhibition entry on Alpha glucosidase [8] was “inactive”. The Activity entry in data set [6] is “Non-Toxic”.
As to `COc1cc(-c2ccc(OCC=C(C)C)cc2)c(OC)c(O)c1-c1ccc(OCC=C(C)C)cc1`, the inhibition entry on Alpha glucosidase [8] was “inactive”. This compound gave a CC50 in [2] of 31.1 µM. Moreover, the pIC50 with HeLa [9] is 5.56; in the data set with HepG2 [10] it was 5.39. The outcome in the data set with A549 [5] was inactive.
Regarding `C=CCOc1ccc(-c2cc(OC)c(-c3ccc(O)cc3)c(O)c2OC)cc1`, the outcome in the data set on HepG2 [1], in the data set on HeLa [4] and in the data set with A549 [5] was inactive. The compound further had an IC50 against Alpha glucosidase [3] of 26.5 µM. The Activity entry in data set [6] is given as “Non-Toxic”.
With `CCCOc1ccc(-c2cc(OC)c(-c3ccc(O)cc3)c(OCCC)c2OC)cc1`, the pIC50 is 6.59 in the data set on A549 [7], 6.74 with HeLa [9] and 6.31 in the data set with HepG2 [10]. Besides, the CC50 in data set [2] turned out to be 0.87 µM. This compound showed an IC50 at Alpha glucosidase [3] of 8.69 µM.
`COc1cccc2c1C(=O)c1c(O)c3c(c(O)c1C2=O)C[C@@](O)(C(=O)CO)C[C@@H]3O[C@H]1C[C@H](N)[C@H](O)[C@H](C)O1` [DOXORUBICIN HYDROCHLORIDE]: the pIC50 in the data set with A549 [7] is 6.80.
As to `COc1cc(-c2ccc(O)cc2)c(OC)c(O)c1-c1ccc(O)c(CC=C(C)C)c1`, in data set [2], the CC50 worked out at 0.91 µM. The compound further gave an IC50 at Alpha glucosidase [3] of 25.7 µM. For the same compound, the outcome in the data set on HeLa [4] and in the data set with A549 [5] was inactive. Besides, in the data set with HepG2 [10], the pIC50 is 5.56.
For `O=C1C=C(c2ccc(O)cc2)C(=O)C(O)=C1c1ccc(O)cc1`, the outcome in the data set with HepG2 [1], in the data set with HeLa [4] and in the data set with A549 [5] was inactive. Moreover, in [2], the CC50 is > 100 µM. In addition, the IC50 against Alpha glucosidase [3] worked out at 22.7 µM.
Regarding `COc1cc(-c2ccc(O)cc2)c(OC)c(OC(=O)c2ccco2)c1-c1ccc(O)cc1`, the result with HepG2 [1], with HeLa [4] and in the data set with A549 [5] was inactive. For the same compound, the IC50 against Alpha glucosidase [3] stood at 35.4 µM. The Activity entry in data set [6] was “Non-Toxic”.
As for `CCCOc1ccc(-c2cc(OC)c(-c3ccc(OCCC)cc3)c(OCCC)c2OC)cc1`, the result in the data set on HepG2 [1], in the data set on HeLa [4] and in the data set on A549 [5] was inactive. The inhibition result on Alpha glucosidase [8] is “inactive”. Also, in [6], the Activity entry is recorded as “Non-Toxic”.
On to `COc1cc(-c2ccc(O)cc2)c(OC)c(OC(C)=O)c1-c1ccc(O)cc1`, for which the outcome in the data set on HepG2 [1], in the data set on HeLa [4] and with A549 [5] was inactive. In data set [6], the Activity result is “Non-Toxic”.
Regarding `COc1cc(-c2ccc(OCC=C(C)C)cc2)c(OC)c(OCC=C(C)C)c1-c1ccc(O)cc1`, the pIC50 with A549 [7] was 5.47; with HeLa [9], 5.47; with HepG2 [10] it was 5.28. For the same compound, in [2], the CC50 worked out at 7.34 µM. The same compound came in with an IC50 against Alpha glucosidase [3] of 53.1 µM.
For the compound `C#CCOc1ccc(-c2cc(OC)c(-c3ccc(OCC#C)cc3)c(OCC#C)c2OC)cc1`, the outcome with HepG2 [1], in the data set on HeLa [4] and in the data set with A549 [5] was inactive. The inhibition result at Alpha glucosidase [8] is “inactive”. The Activity entry in data set [6] is “Non-Toxic”.
With `COc1cc(-c2ccc(OCCC(C)C)cc2)c(OC)c(O)c1-c1ccc(O)cc1`, the result in the data set with HepG2 [1], with HeLa [4] and in the data set on A549 [5] was inactive. On Alpha glucosidase [3], the IC50 stood at 14.3 µM. Besides, the Activity result in data set [6] was “Non-Toxic”.
With `CCCOc1ccc(-c2cc(OC)c(-c3ccc(OCCC)cc3)c(O)c2OC)cc1`, the result with HepG2 [1], in the data set on HeLa [4] and in the data set on A549 [5] was inactive. Besides, the inhibition result at Alpha glucosidase [8] is “inactive”. The Activity result in data set [6] was “Non-Toxic”.
On to `C=CCOc1ccc(-c2cc(OC)c(-c3ccc(O)cc3)c(OCC=C)c2OC)cc1`, for which the pIC50 in the data set with A549 [7] is 6.60; with HeLa [9], 6.82; with HepG2 [10], 6.37. Besides, the CC50 in data set [2] is < 0.62 µM. The same compound registered an IC50 against Alpha glucosidase [3] of 8.77 µM.
`COc1cc(-c2ccc(O)cc2)c(OC)c(O)c1-c1ccc(OC(c2ccccc2)c2ccccc2)cc1`: the outcome with HepG2 [1], with HeLa [4] and in the data set with A549 [5] was inactive. This compound came in with a CC50 in [2] of 48.3 µM.
Consider `COc1cc(-c2ccc(O)cc2)c(OC)c(OC(=O)c2ccc(F)cc2)c1-c1ccc(O)cc1`, for which the result in the data set with HepG2 [1], with HeLa [4] and in the data set with A549 [5] was inactive. Besides, in [6], the Activity result was “Non-Toxic”.
On to `COc1cc(-c2ccc(OCC=C(C)C)cc2)c(OC)c(OCC=C(C)C)c1-c1ccc(OCC=C(C)C)cc1`, for which the outcome in the data set on HepG2 [1], in the data set on HeLa [4] and in the data set with A549 [5] was inactive. Moreover, on Alpha glucosidase [8], the inhibition entry was “inactive”. Further, the Activity result in [6] is given as “Non-Toxic”.
Regarding `COc1cc(-c2ccc(OCCBr)cc2)c(OC)c(O)c1-c1ccc(OCCBr)cc1`, the outcome with HepG2 [1], in the data set with HeLa [4] and in the data set with A549 [5] was inactive. The inhibition entry on Alpha glucosidase [8] is “inactive”. Further, the Activity entry in data set [6] was “Non-Toxic”.
